This is an account of results in article PMC12169669, “Regio- and Stereoselective Synthesis of Nitro-fatty Acids as NRF2 Pathway Activators Working under Ambient or Hypoxic Conditions” (Journal of Medicinal Chemistry, 2025).

Assay [1] relates to Gclm. Kind of assay: GCLM protein level in BMCs (Western blot). Type of assay: cell-based, mouse. The following applies: 2 μM, 7 h. The source says: Primary bone marrow cells (BMCs) were isolated from 8–12-week-old male C57BL/6 mice (25–30 g, AnLab, Czech Republic). Mice were housed under standard conditions. BMCs were isolated as follows: The day before isolation, phosphate-buffered saline (PBS), ACK Lysis Buffer (A10492-01, Thermo Fisher Scientific), and Iscove’s Modified Dulbecco’s Medium (IMDM) (12440-053, Thermo Fisher Scientific) were placed in a hypoxic chamber (InvivO2 400, Baker Ruskinn, UK) with adjustable oxygen control to equilibrate for the target oxygen concentrations. On the day of the experiment, animals were euthanized using ketamine/xylazine, and bilateral femurs were extracted. BMCs were flushed with hypoxic (1% O2 unless stated otherwise) PBS supplemented with 2% fetal bovine serum (FBS; low endotoxin, FB-1101/500, Biosera, France). After hemolysis at room temperature using hypoxic ACK Lysis Buffer, nucleated BMCs were washed with hypoxic PBS + 2% FBS and counted using a TC20 automated cell counter (Bio-Rad). Cells were kept under hypoxic conditions prior to treatment. The medium for BMC culture, consisting of IMDM with 2% FBS and 1% penicillin/streptomycin (LM-A4118/100, Biosera, France), was supplemented with 10 ng/mL mouse IL-3, 10 ng/mL mouse IL-6, and 50 ng/mL mouse stem cell factor - SCF (213-13, 216-16, and 250-03, respectively; all from PeproTech). Cells were cultured at 37 °C in a humidified atmosphere containing 5% CO2 and the specified oxygen concentrations (21%, 4%, or 1%).
Briefly, 1.5 × 10^6 BMCs were placed in 0.2 mL of complete medium in 1.5 mL microtubes and incubated with 2 μM NO2FAs or the control (medium only) for 1 (NRF2), 4 (heme oxygenase-1, HO-1), or 7 (glutamate-cysteine ligase modifier subunit, GCLM) hours at the specified oxygen levels (21%, 4%, or 1%). Cells were then spun down and washed with PBS (from this step onward, cells were processed under atmospheric conditions). Next, cells were lysed in 60 μL RIPA buffer (89901, Thermo Fisher Scientific) containing protease and phosphatase inhibitors cocktail (78442, Thermo Fisher Scientific). Cell lysates were sonicated and centrifuged at 15,000g for 3 min at 4 °C, and 15 μL of lane marker (3900, Thermo Fisher Scientific) was added to the supernatants. Samples were boiled for 3 min at 95 °C. Equal volumes of lysates (15–45 μL/well) were loaded onto 7–15% SDS-polyacrylamide gels. Proteins were then transferred onto PVDF membranes (IPVH85R, EMD Millipore Corp.) and blocked with 5% nonfat dry milk in TBST. Membranes were incubated overnight at 4 °C with the following primary antibodies: anti-β-actin (1:1000; #3700, Cell Signaling Technology), antivinculin (1:10,000; #SAV9264, Sigma-Aldrich), anti-NRF2 (1:500; A308758, Lot 38410, Antibodies.com, UK), anti-HO-1 (1:1000; #43966, Cell Signaling Technology), antihistone H3 (1:2000; #4499, Cell Signaling Technology), or anti-GCLM (1:100; sc-55586, Santa Cruz Biotechnology). This was followed by incubation with corresponding HRP-linked secondary antibodies (antimouse IgG, #7076, 1:1000–5000; or antirabbit IgG, #7074, 1:1000–2000; both from Cell Signaling Technology) for 1 h at room temperature. Protein bands were visualized using an enhanced chemiluminescent substrate (SuperSignal 34577/34095, Thermo Fisher Scientific). The optical densities of detected proteins were measured using ImageJ v1.52 (NIH).
4 Expression of NRF2-target proteins HO-1 and GCLM. NO 2 FA derivatives upregulate the expression of NRF2-target proteins in mouse BMCs. BMCs were cultured under 21% or 1% oxygen conditions and treated with 2 μM of the tested NO 2 FAs for 4 h (A, B) or 7 h (C, D). HO-1 (A, B) and GCLM (C, D) expression in whole-cell lysates was subsequently analyzed. Results are presented as the fold change relative to control cells across different oxygen culture conditions. Data are expressed as mean ± SD from 3–5 independent experiments (n = 3–5). […]
(Immunoblotting shows a protein as a band on a membrane.)

Assay [2] relates to NRF2. In words: NRF2 translocation assay (nuclear fraction, Western blot). Type of assay: cell-based, mouse. Conditions: BMCs, 2 μM, 1 h, 1% oxygen; for translocation of NRF2 to the nucleus, fold change relative to control: nuclear fraction. As to the method:
For the NRF2 translocation assays, 5.5 × 10^6 BMCs were incubated in 0.5 mL of complete medium with 2 μM NO2FAs or the control for 1 h in 1.5 mL microtubes, but only at 1% oxygen. Cytosol, membrane and nuclear cell compartments were isolated with a Cell Fractionation Kit (9038, Cell Signaling Technology) according to the manufacturer’s instructions. Equal volumes of nuclear lysates (20 μL/well) were loaded onto 7–15% SDS-polyacrylamide gels. Histone H3 was used as the loading control for the nuclear fraction.
5 Subcellular localization of NRF2. NO 2 FA derivatives promote nuclear translocation of NRF2 in mouse BMCs. BMCs were cultured under 1% oxygen conditions and treated for 1 h with 2 μM of 10-NO 2 OA, 10-NO 2 LA, or 10-NO 2 SA. A cell fractionation kit was used to isolate the nuclear fraction (A), followed by the detection of NRF2 and histone H3 (used as a control nuclear protein). Western blot results (A) are shown as the fold change relative to control cells. Data are expressed as mean ± SD from two independent experiments (n = 2). Statistical analysis was performed using one-way ANOVA with Dunnett’s multiple comparisons test (* p < 0.05; *** p < 0.001). (B) Representative immunocytochemistry staining of BMCs with NRF2 antibody. BMCs were cultured in 1% oxygen followed by NRF2 and nuclei (DAPI) staining. Treatment with 10-NO2OA increased the colocalization of NRF2 with the nucleus (scale bar: 20 μm).

For the molecule `CCCCCCCC/C=C(\CCCCCCCC(=O)O)[N+](=O)[O-]` [9-NO2OA, (9E)-9-Nitro-oleic Acid], the “GCLM protein level, fold change relative to control” value in assay [1] (1% oxygen) and in assay [1] (21% oxygen) was “nearly the same increase” each time.
With `CCCCC/C=C\C/C(=C\CCCCCCCC(=O)O)[N+](=O)[O-]` [10-NO2LA, (9E,12Z)-10-Nitro Linoleic Acid], the “GCLM protein level, fold change relative to control” value in assay [1] (21% oxygen) is recorded as “only significant at 21% oxygen”. The “translocation of NRF2 to the nucleus, fold change relative to control” value (“translocation … fold change relative to control” below) in assay [2] is “significantly increased”.
In the case of `CCCCCCCCC(CCCCCCCCC(=O)O)[N+](=O)[O-]` (centres unmarked) [10-NO2SA, 10-Nitro Stearic acid], the “GCLM protein level, fold change relative to control” value in assay [1] (1% oxygen) and in assay [1] (21% oxygen) was “no significant effects” each time. Also, in assay [2], the “translocation … fold change relative to control” value is “no effects”.
With `CCCCCCCC/C(=C\CCCCCCCC(=O)O)[N+](=O)[O-]` [10-NO2OA, (9E)-10-Nitro-oleic Acid], in assay [1] (1% oxygen), the “GCLM protein level, fold change relative to control” value is “nearly the same increase”. In assay [1] (21% oxygen), the “GCLM protein level, fold change relative to control” value is listed as “nearly the same increase”. Moreover, in assay [2], the “NRF2 translocation activity relative to 10-NO2LA” value was “ca. 1.7 fold” and the “translocation … fold change relative to control” value is given as “significantly increased”.
